Converted amounts (≈) assume the structure as drawn.
How the values were obtained:
Format in all cases: functional
Staphylococcus aureus [1] = experiment: Antimicrobial activity against Staphylococcus aureus MTCC 96 assessed as diameter of growth inhibition zone at 250 ug/ml after 18-24 hr by agar cup diffusion method; details: read-out: DIZ
Penicillium [2] = experiment: Antimicrobial activity against Penicillium wild strain assessed as diameter of growth inhibition zone at 50 ug/ml after 48-96 hr by agar cup diffusion method; details: read-out: DIZ
Penicillium [3] = experiment: Antimicrobial activity against Penicillium wild strain assessed as diameter of growth inhibition zone at 100 ug/ml after 48-96 hr by agar cup diffusion method; details: read-out: DIZ
Pseudomonas aeruginosa [4] = experiment: Antimicrobial activity against Pseudomonas aeruginosa MTCC 1688 assessed as diameter of growth inhibition zone at 250 ug/ml after 18-24 hr by agar cup diffusion method; details: read-out: DIZ
Klebsiella pneumoniae [5] = experiment: Antimicrobial activity against Klebsiella pneumoniae MTCC 109 assessed as diameter of growth inhibition zone at 250 ug/ml after 18-24 hr by agar cup diffusion method; details: read-out: DIZ
Candida albicans [6] = experiment: Antimicrobial activity against Candida albicans MTCC 227 assessed as diameter of growth inhibition zone at 25 ug/ml after 48-96 hr by agar cup diffusion method; details: read-out: DIZ
Pseudomonas aeruginosa [7] = experiment: Antimicrobial activity against Pseudomonas aeruginosa MTCC 1688 by agar cup diffusion method
Staphylococcus aureus [8] = experiment: Antimicrobial activity against Staphylococcus aureus MTCC 96 assessed as diameter of growth inhibition zone at 50 ug/ml after 18-24 hr by agar cup diffusion method; details: read-out: DIZ
Trichophyton rubrum [9] = experiment: Antimicrobial activity against Trichophyton rubrum MTCC 296 assessed as diameter of growth inhibition zone at 250 ug/ml after 48-96 hr by agar cup diffusion method; details: read-out: DIZ
Pseudomonas aeruginosa [10] = experiment: Antimicrobial activity against Pseudomonas aeruginosa MTCC 1688 assessed as diameter of growth inhibition zone at 100 ug/ml after 18-24 hr by agar cup diffusion method; details: read-out: DIZ
Klebsiella pneumoniae [11] = experiment: Antimicrobial activity against Klebsiella pneumoniae MTCC 109 assessed as diameter of growth inhibition zone at 50 ug/ml after 18-24 hr by agar cup diffusion method; details: read-out: DIZ
Escherichia coli [12] = experiment: Antimicrobial activity against Escherichia coli MTCC 443 assessed as diameter of growth inhibition zone at 100 ug/ml after 18-24 hr by agar cup diffusion method; details: read-out: DIZ
Klebsiella pneumoniae [13] = experiment: Antimicrobial activity against Klebsiella pneumoniae MTCC 109 by agar cup diffusion method
Aspergillus clavatus [14] = experiment: Antimicrobial activity against Aspergillus clavatus MTCC 1323 assessed as diameter of growth inhibition zone at 50 ug/ml after 48-96 hr by agar cup diffusion method; details: read-out: DIZ
Trichophyton rubrum [15] = experiment: Antimicrobial activity against Trichophyton rubrum MTCC 296 assessed as diameter of growth inhibition zone at 100 ug/ml after 48-96 hr by agar cup diffusion method; details: read-out: DIZ
Escherichia coli [16] = experiment: Antimicrobial activity against Escherichia coli MTCC 443 by agar cup diffusion method
Escherichia coli [17] = experiment: Antimicrobial activity against Escherichia coli MTCC 443 assessed as diameter of growth inhibition zone at 25 ug/ml after 18-24 hr by agar cup diffusion method; details: read-out: DIZ
Penicillium [18] = experiment: Antimicrobial activity against Penicillium wild strain assessed as diameter of growth inhibition zone at 250 ug/ml after 48-96 hr by agar cup diffusion method; details: read-out: DIZ
Streptococcus pyogenes [19] = experiment: Antimicrobial activity against Streptococcus pyogenes MTCC 442 assessed as diameter of growth inhibition zone at 25 ug/ml after 18-24 hr by agar cup diffusion method; details: read-out: DIZ
Aspergillus clavatus [20] = experiment: Antimicrobial activity against Aspergillus clavatus MTCC 1323 by agar cup diffusion method
Staphylococcus aureus [21] = experiment: Antimicrobial activity against Staphylococcus aureus MTCC 96 assessed as diameter of growth inhibition zone at 100 ug/ml after 18-24 hr by agar cup diffusion method; details: read-out: DIZ
Pseudomonas aeruginosa [22] = experiment: Antimicrobial activity against Pseudomonas aeruginosa MTCC 1688 assessed as diameter of growth inhibition zone at 25 ug/ml after 18-24 hr by agar cup diffusion method; details: read-out: DIZ
Escherichia coli [23] = experiment: Antimicrobial activity against Escherichia coli MTCC 443 assessed as diameter of growth inhibition zone at 50 ug/ml after 18-24 hr by agar cup diffusion method; details: read-out: DIZ
Candida albicans [24] = experiment: Antimicrobial activity against Candida albicans MTCC 227 assessed as diameter of growth inhibition zone at 250 ug/ml after 48-96 hr by agar cup diffusion method; details: read-out: DIZ
Streptococcus pyogenes [25] = experiment: Antimicrobial activity against Streptococcus pyogenes MTCC 442 assessed as diameter of growth inhibition zone at 50 ug/ml after 18-24 hr by agar cup diffusion method; details: read-out: DIZ
Aspergillus clavatus [26] = experiment: Antimicrobial activity against Aspergillus clavatus MTCC 1323 assessed as diameter of growth inhibition zone at 25 ug/ml after 48-96 hr by agar cup diffusion method; details: read-out: DIZ
Staphylococcus aureus [27] = experiment: Antimicrobial activity against Staphylococcus aureus MTCC 96 assessed as diameter of growth inhibition zone at 25 ug/ml after 18-24 hr by agar cup diffusion method; details: read-out: DIZ
Streptococcus pyogenes [28] = experiment: Antimicrobial activity against Streptococcus pyogenes MTCC 442 assessed as diameter of growth inhibition zone at 250 ug/ml after 18-24 hr by agar cup diffusion method; details: read-out: DIZ
Klebsiella pneumoniae [29] = experiment: Antimicrobial activity against Klebsiella pneumoniae MTCC 109 assessed as diameter of growth inhibition zone at 100 ug/ml after 18-24 hr by agar cup diffusion method; details: read-out: DIZ
Pseudomonas aeruginosa [30] = experiment: Antimicrobial activity against Pseudomonas aeruginosa MTCC 1688 assessed as diameter of growth inhibition zone at 50 ug/ml after 18-24 hr by agar cup diffusion method; details: read-out: DIZ
Streptococcus pyogenes [31] = experiment: Antimicrobial activity against Streptococcus pyogenes MTCC 442 by agar cup diffusion method
Candida albicans [32] = experiment: Antimicrobial activity against Candida albicans MTCC 227 by agar cup diffusion method
Escherichia coli [33] = experiment: Antimicrobial activity against Escherichia coli MTCC 443 assessed as diameter of growth inhibition zone at 250 ug/ml after 18-24 hr by agar cup diffusion method; details: read-out: DIZ
Trichophyton rubrum [34] = experiment: Antimicrobial activity against Trichophyton rubrum MTCC 296 by agar cup diffusion method
Klebsiella pneumoniae [35] = experiment: Antimicrobial activity against Klebsiella pneumoniae MTCC 109 assessed as diameter of growth inhibition zone at 25 ug/ml after 18-24 hr by agar cup diffusion method; details: read-out: DIZ
Streptococcus pyogenes [36] = experiment: Antimicrobial activity against Streptococcus pyogenes MTCC 442 assessed as diameter of growth inhibition zone at 100 ug/ml after 18-24 hr by agar cup diffusion method; details: read-out: DIZ
Trichophyton rubrum [37] = experiment: Antimicrobial activity against Trichophyton rubrum MTCC 296 assessed as diameter of growth inhibition zone at 50 ug/ml after 48-96 hr by agar cup diffusion method; details: read-out: DIZ
Candida albicans [38] = experiment: Antimicrobial activity against Candida albicans MTCC 227 assessed as diameter of growth inhibition zone at 100 ug/ml after 48-96 hr by agar cup diffusion method; details: read-out: DIZ
Penicillium [39] = experiment: Antimicrobial activity against Penicillium wild strain assessed as diameter of growth inhibition zone at 25 ug/ml after 48-96 hr by agar cup diffusion method; details: read-out: DIZ
Penicillium [40] = experiment: Antimicrobial activity against Penicillium wild strain by agar cup diffusion method
Trichophyton rubrum [41] = experiment: Antimicrobial activity against Trichophyton rubrum MTCC 296 assessed as diameter of growth inhibition zone at 25 ug/ml after 48-96 hr by agar cup diffusion method; details: read-out: DIZ
Candida albicans [42] = experiment: Antimicrobial activity against Candida albicans MTCC 227 assessed as diameter of growth inhibition zone at 50 ug/ml after 48-96 hr by agar cup diffusion method; details: read-out: DIZ
Aspergillus clavatus [43] = experiment: Antimicrobial activity against Aspergillus clavatus MTCC 1323 assessed as diameter of growth inhibition zone at 100 ug/ml after 48-96 hr by agar cup diffusion method; details: read-out: DIZ
Aspergillus clavatus [44] = experiment: Antimicrobial activity against Aspergillus clavatus MTCC 1323 assessed as diameter of growth inhibition zone at 250 ug/ml after 48-96 hr by agar cup diffusion method; details: read-out: DIZ
Staphylococcus aureus [45] = experiment: Antimicrobial activity against Staphylococcus aureus MTCC 96 by agar cup diffusion method

Work on `O=C(/C=C/c1ccc2ccccc2c1)C1C(=O)NC(=S)NC1=O` yielded a zone of inhibition at 250 µg/mL (Staphylococcus aureus [1]) of 19 mm, a zone of inhibition at 50 µg/mL (Penicillium [2]) of 18 mm and a zone of inhibition at 100 µg/mL (Penicillium [3]) of 21 mm. The zone of inhibition at 250 µg/mL (Pseudomonas aeruginosa [4]) was 19 mm, the zone of inhibition at 250 µg/mL (Klebsiella pneumoniae [5]) was 20 mm and the zone of inhibition at 25 µg/mL (Candida albicans [6]) was 22 mm. For the same molecule, the MBC (Pseudomonas aeruginosa [7]) was 125 µg/mL (≈ 385 µM), the MIC (Pseudomonas aeruginosa [7]) was 100 µg/mL (≈ 308 µM) and the zone of inhibition at 50 µg/mL (Staphylococcus aureus [8]) was 12 mm. For the same molecule, the zone of inhibition at 250 µg/mL (Trichophyton rubrum [9]) was 23 mm, the zone of inhibition at 100 µg/mL (Pseudomonas aeruginosa [10]) was 15 mm and the zone of inhibition at 50 µg/mL (Klebsiella pneumoniae [11]) was 15 mm. The zone of inhibition at 100 µg/mL (Escherichia coli [12]) was 18 mm, the MBC (Klebsiella pneumoniae [13]) was 200 µg/mL (≈ 617 µM) and the MIC (Klebsiella pneumoniae [13]) was 125 µg/mL (≈ 385 µM). For the same molecule, the zone of inhibition at 50 µg/mL (Aspergillus clavatus [14]) was 20 mm, the zone of inhibition at 100 µg/mL (Trichophyton rubrum [15]) was 22 mm and the MBC (Escherichia coli [16]) was 500 µg/mL (≈ 1540 µM). For the same molecule, the MIC (Escherichia coli [16]) was 250 µg/mL (≈ 771 µM), the zone of inhibition at 25 µg/mL (Escherichia coli [17]) was 14 mm and the zone of inhibition at 250 µg/mL (Penicillium [18]) was 23 mm. For the same molecule, the zone of inhibition at 25 µg/mL (Streptococcus pyogenes [19]) was 14 mm, the MFC (Aspergillus clavatus [20]) was > 1000 µg/mL and the MIC (Aspergillus clavatus [20]) was > 1000 µg/mL. It also gave a zone of inhibition at 100 µg/mL (Staphylococcus aureus [21]) of 15 mm, a zone of inhibition at 25 µg/mL (Pseudomonas aeruginosa [22]) of 10 mm and a zone of inhibition at 50 µg/mL (Escherichia coli [23]) of 16 mm. For the same molecule, the zone of inhibition at 250 µg/mL (Candida albicans [24]) was 25 mm, the zone of inhibition at 50 µg/mL (Streptococcus pyogenes [25]) was 16 mm and the zone of inhibition at 25 µg/mL (Aspergillus clavatus [26]) was 18 mm. For the same molecule, the zone of inhibition at 25 µg/mL (Staphylococcus aureus [27]) was 10 mm, the zone of inhibition at 250 µg/mL (Streptococcus pyogenes [28]) was 21 mm and the zone of inhibition at 100 µg/mL (Klebsiella pneumoniae [29]) was 18 mm. It also gave a zone of inhibition at 50 µg/mL (Pseudomonas aeruginosa [30]) of 12 mm, an MBC (Streptococcus pyogenes [31]) of 250 µg/mL (≈ 771 µM) and an MIC (Streptococcus pyogenes [31]) of 250 µg/mL (≈ 771 µM). For the same molecule, the MFC (Candida albicans [32]) was > 1000 µg/mL, the MIC (Candida albicans [32]) was > 1000 µg/mL and the zone of inhibition at 250 µg/mL (Escherichia coli [33]) was 21 mm. For the same molecule, the MFC (Trichophyton rubrum [34]) was 1000 µg/mL (≈ 3080 µM), the MIC (Trichophyton rubrum [34]) was 1000 µg/mL (≈ 3080 µM) and the zone of inhibition at 25 µg/mL (Klebsiella pneumoniae [35]) was 14 mm. It also gave a zone of inhibition at 100 µg/mL (Streptococcus pyogenes [36]) of 18 mm, a zone of inhibition at 50 µg/mL (Trichophyton rubrum [37]) of 20 mm and a zone of inhibition at 100 µg/mL (Candida albicans [38]) of 24 mm. For the same molecule, the zone of inhibition at 25 µg/mL (Penicillium [39]) was 18 mm, the MFC (Penicillium [40]) was 1000 µg/mL (≈ 3080 µM) and the MIC (Penicillium [40]) was 1000 µg/mL (≈ 3080 µM). For the same molecule, the zone of inhibition at 25 µg/mL (Trichophyton rubrum [41]) was 18 mm, the zone of inhibition at 50 µg/mL (Candida albicans [42]) was 22 mm and the zone of inhibition at 100 µg/mL (Aspergillus clavatus [43]) was 25 mm. For the same molecule, the zone of inhibition at 250 µg/mL (Aspergillus clavatus [44]) was 25 mm, the MBC (Staphylococcus aureus [45]) was 250 µg/mL (≈ 771 µM) and the MIC (Staphylococcus aureus [45]) was 200 µg/mL (≈ 617 µM).
